# Measured values published in US20090023630A1, “Methods and Means for Use in Diagnostics and Treatment of Diabetes” (priority 2005, published 2009).
# Ends that are not written are not given here.
# Target: HLA-A*0201 (Homo sapiens, UniProt P04439, D140Y/D185E/D98H/E176V/E277Q/G131W/G231S/I119V/I121R/I166T/I218V/L300P/L318F/N151K/N90K/P208A/P217A/Q86G/Q94H/R138H/R169H/T345S)
# Assay: Peptide-HLA binding (competition with Fl-labeled HLA-A*0201 binding peptide)
# Settings: not given
# Experimental: Peptide binding was assessed as described (21). […] HLA-bound and non-bound Fl-labeled peptides were separated by HPLC gel permeation chromatography with fluorescence detection. The concentration at which the test peptide reduced the amount of HLA-bound Fl-labeled peptide by 50% (IC50) was calculated using non-linear regression analysis. To select candidate HLA-A*0201 binding peptides from the insulin B chain, the molecule was screened for HLA-A*0201 binding motif containing peptides with a combination of two known binding prediction algorithms (18).
row,Compound,IC50 [nM]
1,ALYLVCGER [Peptide 14-22],90200
2,HLCGSHLVEA [Peptide 5-14],60
3,HLVEALYLVCG [Peptide 10-20],190
4,LVEALYLVC [Peptide 11-19],3600
5,SHLVEALYLV [Peptide 9-18],1370

# Same assay, conditions: peptide concentration needed to inhibit binding of FL-labeled reference peptide for 50%; read-out: IC50 (binding affinity for HLA-A*0201)
row,IC50 [nM],Compound
1,> 100000,CC(C)C[C@H](NC(=O)[C@H](C)N)C(=O)N[C@@H](Cc1ccc(O)cc1)C(=O)N[C@@H](CC(C)C)C(=O)N[C@H](C(=O)N[C@@H](CS)C(=O)NCC(=O)N[C@@H](CCC(=O)O)C(=O)N[C@@H](CCCNC(=N)N)C(=O)NCC(=O)O)C(C)C [Peptide 14-23]
2,2260,ALYLVCGERGF [Peptide 14-24]
3,3730,GSHLVEALYLV [Peptide 8-18]
4,440,"HLCGSGLVEAL [Peptide 5-15, HLCGSGLVEAL]"
5,1750,HLVEALYLVC [Peptide 10-19]
6,9120,QHLCGSHLV [Peptide 4-12]
7,59500,SHLVEALYL [Peptide 9-17]
8,2300,YLVCGERGFF [Peptide 16-25]
9,8590,YLVCGERGFFY [Peptide 16-26]
